Data taken from patent US3987157A, “Technetium 99-M labeled radio-diagnostic agents employing stannous tartrate and method of preparation” (Union Carbide Corporation, priority 1974, dated 1976).

Columns and labels:
[1] = Stability of various stannous compounds to air oxidation, one hour (Table XII); type: physicochemical; conditions: for Stannous Concentration Before Aeration: 98 ml saline containing 2 ml 1N HCl; for Stannous Concentration After Aeration / % Not Oxidized tin: air bubbled for one hour; for % Not Oxidized tin: 60 min
Experimental: Six salts of stannous compounds were each dissolved in 98 ml of saline containing 2 ml 1N HCl. The solutions were analyzed in order to measure the stannous ion concentration and then were subjected to oxidation conditions by bubbling air through the solutions for one hour. The solutions were analyzed again. […]

[2] = Stability of stannous compounds to air oxidation, 2.5 hours (Table XI); type: physicochemical; conditions: 40 ml saline and 1 ml 1N HCl
Experimental: Four salts of stannous compounds were each dissolved in a solution of 40 ml of saline and 1 ml of 1N HCl which was purged with nitrogen. The stannous concentration was measured and then the solution was subjected to oxidation conditions by bubbling air through the solution for 2.5 hours. The stannous concentration was again measured.

In the case of `[Cl][Sn][Cl]` [Stannous Chloride, stannous chloride, reference compound], the “Stannous Concentration Before Aeration” value [1] is reported as 0.138 mg/mL, the “Stannous Concentration After Aeration” value [1] is reported as 0.085 mg/mL and the “% Not Oxidized tin” value [1] is reported as 61.6%. The “Stannous Concentration Before Aeration” value [2] was 9.3 mg/mL.

With `O=C([O-])[C@H](O)[C@@H](O)C(=O)[O-].[Sn+2]` [Stannous Tartrate, stannous tartrate] the “Stannous Concentration Before Aeration” value [1] was 0.247 mg/mL, the “Stannous Concentration After Aeration” value [1] was 0.213 mg/mL and the “% Not Oxidized tin” value [1] was 86.2%. The “Stability to air oxidation (in words)” value ([1]; one hour air) was “more stable than stannous chloride with tartrate or citrate ion present” and the “Stannous Concentration Before Aeration” value [2] was 18.0 mg/mL.
